Biological target: T1, haematopoietic prostaglandin D synthase (H-PGDS) (Homo sapiens, UniProt O60760)
T1 construct: Full length human H-PGDS cDNA (Invitrogen Ultimate ORF IOH13026) was amplified by PCR; 6-His (N); TEV protease cleavage site (N); made in house; host or cells: E. coli BL21 (DE3*)
Experiment: H-PGDS RapidFire high throughput mass spectrometry assay (conversion of PGH2 to PGD2)
Format: biochemical
Conditions: 10 nM H-PGDS, PGH2 formed in situ by COX-2 from arachidonic acid; four parameter curve fit; read-out: Potency Range (mean pIC50) (converted)
Outline: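 His-tagged full-length human H-PGDS from E. coli converts PGH2, generated in situ at ~10 μM from arachidonic acid by FLAG-tagged human COX-2 from Sf9 cells. RapidFire SPE-triple quadrupole MS measures PGD2 against PGF2α as substrate surrogate; percent conversion is calculated.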

T1 sequence (O60760 whole entry): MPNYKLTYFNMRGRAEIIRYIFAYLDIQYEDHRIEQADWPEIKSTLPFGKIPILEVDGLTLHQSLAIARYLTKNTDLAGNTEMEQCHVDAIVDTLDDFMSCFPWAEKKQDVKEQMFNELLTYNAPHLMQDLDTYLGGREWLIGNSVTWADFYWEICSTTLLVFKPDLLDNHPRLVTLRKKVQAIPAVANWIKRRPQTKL

Molecule `CC(C)(O)[C@H]1CC[C@H](NC(=O)c2cnc3nc(C4CC4)ccc3c2)CC1` [Example 21, 7-Cyclopropyl-N-((trans)-4-(2-hydroxypropan-2-yl)cyclohexyl)-1,8-naphthyridine-3-carboxamide] has an IC50 of under 10 nM.
